Data on six compounds can be found in ChEMBL document CHEMBL2424578, “Synergistic effects of berberines with antibiotics on clinical multi-drug resistant isolates of methicillin-resistant Staphylococcus aureus (MRSA)” (2013).

In general, MBC refers to the lowest tested concentration that kills the bacteria rather than only halting them. Lower therefore signals more potent killing. By MIC is commonly meant the smallest concentration in the dilution series that meets the test's criterion for growth inhibition. Read a low MIC as a more susceptible organism.

SMILES strings stand for the structures. Values after ≈ are worked out from the molar mass of the structure shown.

Holding throughout (format): functional
Assay [1] deals with Staphylococcus aureus. Nature of the assay: Antibacterial activity against SCCmec type 3 genotype-positive and methicillin-resistant Staphylococcus aureus clinical isolates after 24 hrs by broth microdilution method. (In general: Broth dilution looks for growth in wells or tubes with falling amounts of substance.)
For assay [2], the system named is Staphylococcus aureus. Nature of the assay: Antibacterial activity against SCCmec type 3 genotype-positive and methicillin-resistant Staphylococcus aureus clinical isolates after 24 hrs by chequerboard method in presence of azithromycin.
Assay [3] relates to Staphylococcus aureus. The assay is described as follows: Antibacterial activity against SCCmec type 3 genotype-positive and methicillin-resistant Staphylococcus aureus clinical isolates after 24 hrs by chequerboard method in presence of levofloxacin.
The subject of assay [4] is Staphylococcus aureus. Nature of the assay: Antibacterial activity against SCCmec type 3 genotype-positive and methicillin-resistant Staphylococcus aureus clinical isolates after 24 hrs by chequerboard method in presence of cefazolin.
In assay [5] the test system is Staphylococcus aureus. Nature of the assay: Antibacterial activity against SCCmec type 3 genotype-positive and methicillin-resistant Staphylococcus aureus clinical isolates after 24 hrs by chequerboard method in presence of ampicillin.

In the assay on Staphylococcus aureus [1], `COc1ccc2cc3[n+](cc2c1OC)CCc1cc2c(cc1-3)OCO2.[Cl-]` [BERBERINE CHLORIDE] yielded a minimum bactericidal concentration (MBC) of 64 µg/mL. In the assay with Staphylococcus aureus [1], this compound registered an MIC of 32 µg/mL. For the same compound, the FICI50 came to 0.313 in the assay on Staphylococcus aureus [2], 0.5 in the assay on Staphylococcus aureus [3], 2 in the assay on Staphylococcus aureus [4] and 2 in the assay with Staphylococcus aureus [5]. Moreover, the FICI90 in the assay on Staphylococcus aureus [2] amounted to 0.5; in the assay with Staphylococcus aureus [3], 0.75; in the assay with Staphylococcus aureus [4] it was 2; in the assay with Staphylococcus aureus [5], 2. Moreover, the “fractional inhibitory concentration index (FICI)” value in the assay with Staphylococcus aureus [2] is on record as 0.25; in the assay on Staphylococcus aureus [3] it was 0.375; in the assay with Staphylococcus aureus [4], 1.5; in the assay with Staphylococcus aureus [5], 1.5.

Regarding `CC1(C)S[C@@H]2[C@H](NC(=O)[C@H](N)c3ccccc3)C(=O)N2[C@H]1C(=O)O` [AMPICILLIN], the MBC against Staphylococcus aureus [1] worked out at 64 µg/mL (≈ 183 µM).

In turn, `COS(=O)(=O)[O-].COc1ccc2c(c1OC)C[N+]1(C)CCc3cc4c(cc3C1=C2)OCO4` (stereo not drawn) showed an MBC against Staphylococcus aureus [1] of 256 µg/mL. The MIC with Staphylococcus aureus [1] was determined as 64 µg/mL. For the same compound, the FICI50 in the assay with Staphylococcus aureus [2] was determined as 0.375; with Staphylococcus aureus [3], 0.375; in the assay with Staphylococcus aureus [4] it was 2; with Staphylococcus aureus [5] it was 2. The FICI90 is recorded as 0.5 in the assay on Staphylococcus aureus [2], 0.5 in the assay on Staphylococcus aureus [3], 2 with Staphylococcus aureus [4] and 2 in the assay on Staphylococcus aureus [5]. Moreover, the “fractional inhibitory concentration index (FICI)” value with Staphylococcus aureus [2] amounted to 0.188; with Staphylococcus aureus [3] it was 0.25; in the assay with Staphylococcus aureus [4], 1.5; with Staphylococcus aureus [5], 1.5.

For `CN[C@H](CC(C)C)C(=O)N[C@H]1C(=O)N[C@@H](CC(N)=O)C(=O)N[C@H]2C(=O)N[C@H]3C(=O)N[C@H](C(=O)N[C@H](C(=O)O)c4cc(O)cc(O)c4-c4cc3ccc4O)[C@H](O)c3ccc(c(Cl)c3)Oc3cc2cc(c3O[C@@H]2O[C@H](CO)[C@@H](O)[C@H](O)[C@H]2O[C@H]2C[C@](C)(N)[C@H](O)[C@H](C)O2)Oc2ccc(cc2Cl)[C@H]1O` [VANCOMYCIN], the MBC against Staphylococcus aureus [1] is 2 µg/mL (≈ 1.38 µM).

In the case of `CC[C@H]1OC(=O)[C@H](C)[C@@H](O[C@H]2C[C@@](C)(OC)[C@@H](O)[C@H](C)O2)[C@H](C)[C@@H](O[C@@H]2O[C@H](C)C[C@H](N(C)C)[C@H]2O)[C@](C)(O)C[C@@H](C)CN(C)[C@H](C)[C@@H](O)[C@]1(C)O` [AZITHROMYCIN], the MIC in the assay on Staphylococcus aureus [1] stood at 2000 µg/mL (≈ 2670 µM).

For `C[C@H]1COc2c(N3CCN(C)CC3)c(F)cc3c(=O)c(C(=O)O)cn1c23.C[C@H]1COc2c(N3CCN(C)CC3)c(F)cc3c(=O)c(C(=O)O)cn1c23.O` [LEVOFLOXACIN], in the assay with Staphylococcus aureus [1], the MBC stood at 8 µg/mL and the MIC stood at 2 µg/mL.
